Target: T1, human full-length recombinant PKC βII (Homo sapiens, UniProt P05771)
T1 construct: Active human full-length recombinant PKC βII; purchased Invitrogen GmbH, Darmstadt, Germany
Assay: Determination of PKC βII inhibition (Caliper mobility-shift kinase assay, Fluorescein-RFARKGSLRQKNV peptide substrate)
Assay type: biochemical
Conditions: example compounds at a final concentration of 1.14 μM (±0.15 μM)
Summary of the method: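 Full-length PKC βII (30 ng/ml in pre-dilution) with PS/DAG/Ca2+ activators, pH 7.4; fluorescein peptide and ATP at 3 μM and 120 μM before mixing. Reaction ran 60 min at 32 °C, was EDTA-stopped, and was read by mobility shift. % inhibition came from product/(substrate+product) peak heights, tested at 1.14 μM final.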

T1 sequence (P05771 1-673 isoform P05771-2): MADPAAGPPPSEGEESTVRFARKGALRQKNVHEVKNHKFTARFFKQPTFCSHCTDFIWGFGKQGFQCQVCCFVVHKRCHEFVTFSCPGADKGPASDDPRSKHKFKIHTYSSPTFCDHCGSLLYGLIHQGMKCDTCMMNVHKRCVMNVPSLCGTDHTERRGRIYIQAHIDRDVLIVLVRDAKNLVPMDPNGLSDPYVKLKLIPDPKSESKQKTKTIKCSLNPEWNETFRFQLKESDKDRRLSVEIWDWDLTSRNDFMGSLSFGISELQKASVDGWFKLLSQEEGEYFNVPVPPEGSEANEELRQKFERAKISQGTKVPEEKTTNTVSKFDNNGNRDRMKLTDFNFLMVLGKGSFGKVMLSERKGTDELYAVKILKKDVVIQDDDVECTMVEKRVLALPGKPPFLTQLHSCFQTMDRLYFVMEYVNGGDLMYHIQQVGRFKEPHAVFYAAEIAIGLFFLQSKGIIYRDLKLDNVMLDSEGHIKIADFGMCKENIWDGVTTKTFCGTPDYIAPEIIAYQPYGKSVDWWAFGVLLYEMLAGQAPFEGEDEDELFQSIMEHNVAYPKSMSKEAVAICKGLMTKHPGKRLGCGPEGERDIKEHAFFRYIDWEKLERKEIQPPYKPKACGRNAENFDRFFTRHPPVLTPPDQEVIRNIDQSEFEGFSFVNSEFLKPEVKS

Structure (SMILES)	inhibition at 1.14 µM [%]	% Inhibition [%]
Cc1n[nH]c2nc(-c3ccc(O)cc3)cc(C(=O)NC3CN4CCC3CC4)c12 (stereo not drawn) [Example 207, 6-(4-Hydroxy-phenyl)-3-methyl-1H-pyrazolo[3,4-b]pyridine-4-carboxylic acid (1-aza-bicyclo[2.2.2]oct-3-yl)-amide]	94	
Cc1n[nH]c2nc(-c3ccc(O)c(F)c3)cc(C(=O)N(C)C3CCN(C)CC3)c12 [Example 331, 6-(3-Fluoro-4-hydroxy-phenyl)-3-methyl-1H-pyrazolo[3,4-b]pyridine-4-carboxylic acid methyl-(1-methyl-piperidin-4-yl)-amide]	41	
CCc1n[nH]c2nc(-c3ccc(O)cc3)cc(C(=O)N3CCNC(C)C3)c12 (stereo not drawn) [Example 165, [3-Ethyl-6-(4-hydroxy-phenyl)-1H-pyrazolo[3,4-b]pyridin-4-yl]-(3-methyl-piperazin-1-yl)-methanone]	92	
Cc1n[nH]c2nc(-c3ccc(O)cc3)cc(C(=O)N3C[C@H](C)NC[C@H]3C)c12 [Example 81, ((2R,5S)-2,5-Dimethyl-piperazin-1-yl)-[6-(4-hydroxy-phenyl)-3-methyl-1H-pyrazolo[3,4-b]pyridin-4-yl]-methanone]		76
Cc1n[nH]c2nc(-c3ccc(O)cc3)cc(C(=O)N3CCNC(c4ccccc4)C3)c12 (single isomer, unassigned) [Example 457, [6-(4-Hydroxy-phenyl)-3-methyl-1H-pyrazolo[3,4-b]pyridin-4-yl]-(3-phenyl-piperazin-1-yl)-methanone]		63
Cc1cc(O)ccc1-c1cc(C(=O)N2CCNC[C@@H]2c2cccc(F)c2)c2c(C)n[nH]c2n1 [Example 141, [(S)-2-(3-Fluoro-phenyl)-piperazin-1-yl]-[6-(4-hydroxy-2-methyl-phenyl)-3-methyl-1H-pyrazolo[3,4-b]pyridin-4-yl]-methanone]	98	
Cc1n[nH]c2nc(-c3ccc(O)cc3)cc(C(=O)N3C[C@@H](C)NC[C@H]3C)c12 [Example 83, ((2R,5R)-2,5-Dimethyl-piperazin-1-yl)-[6-(4-hydroxy-phenyl)-3-methyl-1H-pyrazolo[3,4-b]pyridin-4-yl]-methanone]	104	
Cc1n[nH]c2nc(-c3ccc(O)cc3)cc(C(=O)NCCC3CCNCC3)c12 [Example 395, 6-(4-Hydroxy-phenyl)-3-methyl-1H-pyrazolo[3,4-b]pyridine-4-carboxylic acid (2-piperidin-4-yl-ethyl)-amide]	42	
CC(=O)N1CCN(C(=O)c2cc(-c3ccc(O)cc3)nc3[nH]nc(C)c23)CC1 [Example 265, 1-{4-[6-(4-Hydroxy-phenyl)-3-methyl-1H-pyrazolo[3,4-b]pyridine-4-carbonyl]-piperazin-1-yl}-ethanone]	87	
CN[C@H]1CN(C(=O)c2cc(-c3ccc(O)c(F)c3)nc3[nH]nc(C)c23)CC[C@H]1C (racemic) [Example 312, [6-(3-Fluoro-4-hydroxy-phenyl)-3-methyl-1H-pyrazolo[3,4-b]pyridin-4-yl]-(cis-4-methyl-3-methylamino-piperidin-1-yl)-methanone]	54	
CC(=O)N1CCC(NC(=O)c2cc(-c3ccc(O)cc3)nc3[nH]nc(C)c23)CC1 [Example 277, 6-(4-Hydroxy-phenyl)-3-methyl-1H-pyrazolo[3,4-b]pyridine-4-carboxylic acid (1-acetyl-piperidin-4-yl)-amide]	35	
Cc1n[nH]c2nc(-c3ccc(O)c(F)c3)cc(C(=O)N3CC4(CCNCC4)C3)c12 [Example 339, (2,7-Diaza-spiro[3.5]non-2-yl)-[6-(3-fluoro-4-hydroxy-phenyl)-3-methyl-1H-pyrazolo[3,4-b]pyridin-4-yl]-methanone]	73	
Cc1n[nH]c2nc(-c3ccc(O)c(F)c3)cc(C(=O)NCCC3CCCN3C)c12 (stereo not drawn) [Example 316, 6-(3-Fluoro-4-hydroxy-phenyl)-3-methyl-1H-pyrazolo[3,4-b]pyridine-4-carboxylic acid [2-(1-methyl-pyrrolidin-2-yl)-ethyl]-amide]	51	
Cc1n[nH]c2nc(-c3ccc(O)cc3)cc(C(=O)NC3CC4CCCC(C3)N4C)c12 (stereo not drawn) [Example 223, 6-(4-Hydroxy-phenyl)-3-methyl-1H-pyrazolo[3,4-b]pyridine-4-carboxylic acid (9-methyl-9-aza-bicyclo[3.3.1]non-3-yl)-amide]	74	
Cc1n[nH]c2nc(-c3ccc(O)cc3)cc(C(=O)NC3CCC(N)CC3)c12 (stereo not drawn) [Example 231, 6-(4-Hydroxy-phenyl)-3-methyl-1H-pyrazolo[3,4-b]pyridine-4-carboxylic acid (4-amino-cyclohexyl)-amide]	84	
CCC[C@H]1CN(C(=O)c2cc(-c3ccc(O)c(F)c3)nc3[nH]nc(C)c23)CCN1 [Example 293, [6-(3-Fluoro-4-hydroxy-phenyl)-3-methyl-1H-pyrazolo[3,4-b]pyridin-4-yl]-((S)-3-propyl-piperazin-1-yl)-methanone]	89	
Cc1n[nH]c2nc(-c3ccc(O)cc3)cc(C(=O)NC3(C)CCNCC3)c12 [Example 41, 6-(4-Hydroxy-phenyl)-3-methyl-1H-pyrazolo[3,4-b]pyridine-4-carboxylic acid (4-methyl-piperidin-4-yl)-amide]	95	

Structure (SMILES)	inhibition at 1.14 µM [%]	% Inhibition [%]
Cc1n[nH]c2nc(-c3ccc(O)c(F)c3)cc(C(=O)N3CCN[C@@H](C)C3)c12 [Example 290, [6-(3-Fluoro-4-hydroxy-phenyl)-3-methyl-1H-pyrazolo[3,4-b]pyridin-4-yl]-((S)-3-methyl-piperazin-1-yl)-methanone]	96	
Cc1n[nH]c2nc(-c3ccc(O)cc3)cc(C(=O)N3CCNC(Cc4ccccc4)C3)c12 (stereo not drawn) [Example 375, (3-Benzyl-piperazin-1-yl)-[6-(4-hydroxy-phenyl)-3-methyl-1H-pyrazolo[3,4-b]pyridin-4-yl]-methanone]	90	
Cc1n[nH]c2nc(-c3ccc(O)c(F)c3)cc(C(=O)N[C@@H]3CCCNC3)c12 [Example 305, 6-(3-Fluoro-4-hydroxy-phenyl)-3-methyl-1H-pyrazolo[3,4-b]pyridine-4-carboxylic acid (R)-piperidin-3-ylamide]	83	
Cc1n[nH]c2nc(-c3ccc(O)cc3)cc(C(=O)N[C@@H]3CN4CCC3CC4)c12 [Example 200]		70
Cc1cc(O)ccc1-c1cc(C(=O)N2CCNCC2c2cccc(F)c2)c2c(C)n[nH]c2n1 (stereo not drawn) [Example 147, [2-(3-Fluoro-phenyl)-piperazin-1-yl]-[6-(4-hydroxy-2-methyl-phenyl)-3-methyl-1H-pyrazolo[3,4-b]pyridin-4-yl]-methanone]	96	
Cc1n[nH]c2nc(-c3ccc(O)cc3)cc(C(=O)NC3CC(C)(C)N(C)C(C)(C)C3)c12 [Example 276, 6-(4-Hydroxy-phenyl)-3-methyl-1H-pyrazolo[3,4-b]pyridine-4-carboxylic acid (1,2,2,6,6-pentamethyl-piperidin-4-yl)-amide]	66	
O=C(N[C@@H]1CCCNC1)c1cc(-c2ccc(O)cc2)nc2[nH]nc(C(F)(F)F)c12 [Example 398, 6-(4-Hydroxy-phenyl)-3-trifluoromethyl-1H-pyrazolo[3,4-b]pyridine-4-carboxylic acid (R)-piperidin-3-ylamide]	21	
Cc1n[nH]c2nc(-c3ccc(O)cc3F)cc(C(=O)N3CCC(N)(C(F)(F)F)C3)c12 (stereo not drawn) [Example 432, (3-Amino-3-trifluoromethyl-pyrrolidin-1-yl)-[6-(2-fluoro-4-hydroxy-phenyl)-3-methyl-1H-pyrazolo[3,4-b]pyridin-4-yl]-methanone]	42	
Cc1n[nH]c2nc(-c3ccc(O)cc3)cc(C(=O)NC3CCCC[C@@H]3N)c12 (mixture of isomers) [Example 123, 6-(4-Hydroxy-phenyl)-3-methyl-1H-pyrazolo[3,4-b]pyridine-4-carboxylic acid (trans-2-amino-cyclohexyl)-amide]	75	
Cc1ccc(C(CN)NC(=O)c2cc(-c3ccc(O)cc3)nc3[nH]nc(C)c23)cc1 (stereo not drawn) [Example 52, 6-(4-Hydroxy-phenyl)-3-methyl-1H-pyrazolo[3,4-b]pyridine-4-carboxylic acid (2-amino-1-p-tolyl-ethyl)-amide]	86	
CO[C@H]1CNC[C@@H]1NC(=O)c1cc(-c2ccc(O)cc2)nc2[nH]nc(C)c12 (racemic) [Example 78, 6-(4-Hydroxy-phenyl)-3-methyl-1H-pyrazolo[3,4-b]pyridine-4-carboxylic acid ((trans)-4-methoxy-pyrrolidin-3-yl)-amide]	99	
Cc1n[nH]c2nc(-c3ccc(O)cc3)cc(C(=O)N3CCN[C@H](C)C3)c12 [Example 189, [6-(4-Hydroxy-phenyl)-3-methyl-1H-pyrazolo[3,4-b]pyridin-4-yl]-((R)-3-methyl-piperazin-1-yl)-methanone]	96	
CCc1n[nH]c2nc(-c3ccc(O)cc3)cc(C(=O)N3CC(N)C3)c12 [Example 160, (3-Amino-azetidin-1-yl)-[3-ethyl-6-(4-hydroxy-phenyl)-1H-pyrazolo[3,4-b]pyridin-4-yl]-methanone]	49	
CCC[C@H]1CN(C(=O)c2cc(-c3ccc(O)cc3)nc3[nH]nc(C)c23)CCN1 [Example 68, [6-(4-Hydroxy-phenyl)-3-methyl-1H-pyrazolo[3,4-b]pyridin-4-yl]-((S)-3-propyl-piperazin-1-yl)-methanone]	88	
Cc1n[nH]c2nc(-c3ccc(O)cc3)cc(C(=O)N[C@@H]3CCCNC3)c12 [Example 222, 6-(4-Hydroxy-phenyl)-3-methyl-1H-pyrazolo[3,4-b]pyridine-4-carboxylic acid (R)-piperidin-3-ylamide]	97	
Cc1n[nH]c2nc(-c3ccc(O)cc3)cc(C(=O)NCC(C)N3CCCC3)c12 (stereo not drawn) [Example 389, 6-(4-Hydroxy-phenyl)-3-methyl-1H-pyrazolo[3,4-b]pyridine-4-carboxylic acid (2-pyrrolidin-1-yl-propyl)-amide]	65	
